Measurements published in ChEMBL document CHEMBL4312011, “Synthesis and biological evaluation of triterpenoid thiazoles derived from betulonic acid, dihydrobetulonic acid, and ursonic acid” (Eur J Med Chem, 2020).
Values after ≈ are worked out from the molar mass of the structure shown. Active and inactive are the calls of the source. The calls are words filed in the database; no cut-off is given here.

Key:
[1] = system: CCRF-CEM; test: Cell cycle arrest in human CCRF-CEM cells assessed as decrease in proportion of cells in S phase at 5 times IC50 measured after 24 hrs by propidium iodide/RNase staining based flow cytometry analysis; format: functional
[2] = system: CCRF-CEM; test: Cell cycle arrest in human CCRF-CEM cells assessed as increase in G2/M phase accumulation at 5 times IC50 measured after 24 hrs by propidium iodide/RNase staining based flow cytometry analysis; format: functional
[3] = system: CCRF-CEM; test: Induction of mitochondrial membrane depolarization in human CCRF-CEM cells at 5 times IC50 measured after 24 hrs by JC-1 staining based flow cytometry analysis (reference value: 8.4 %); format: functional
[4] = system: CCRF-CEM; test: Induction of apoptosis in human CCRF-CEM cells assessed as decrease in Bcl-2 expression at 5 times IC50 concentration measured after 24 hrs by Western blot analysis; format: functional, cell-based
[5] = system: CCRF-CEM; test: Induction of apoptosis in human CCRF-CEM cells assessed as increase in BAX expression at 5 times IC50 concentration measured after 24 hrs by Western blot analysis; format: functional, cell-based
[6] = system: CCRF-CEM; test: Induction of apoptosis in human CCRF-CEM cells assessed as activation of procaspase 8 at 5 times IC50 concentration measured after 24 hrs by Western blot analysis; format: functional, cell-based
[7] = system: CCRF-CEM; test: Induction of apoptosis in human CCRF-CEM cells assessed as activation of PARP cleavage at 5 times IC50 concentration measured after 24 hrs by Western blot analysis; format: functional, cell-based
[8] = system: CCRF-CEM; test: Induction of apoptosis in human CCRF-CEM cells assessed as activation of caspase 7 at 5 times IC50 concentration measured after 24 hrs by Western blot analysis; format: functional, cell-based
[9] = system: CCRF-CEM; test: Induction of apoptosis in human CCRF-CEM cells assessed as activation of caspase 3 at 5 times IC50 concentration measured after 24 hrs by Western blot analysis; format: functional, cell-based
[10] = system: CCRF-CEM; test: Induction of apoptosis in human CCRF-CEM cells assessed as increase in caspase 3/7 activity using Ac-DEVD-AMC as substrate at 5 times IC50 concentration measured after 24 hrs by fluorescence assay; format: functional, cell-based
[11] = system: CCRF-CEM; test: Induction of apoptosis in human CCRF-CEM cells assessed as necrotic cells at 5 times IC50 concentration measured after 24 hrs by AnnexinV-FITC/propidium iodide staining based flow cytometry analysis (reference value: 0.1 %); format: functional
[12] = system: CCRF-CEM; test: Induction of apoptosis in human CCRF-CEM cells assessed as late apoptotic cells at 5 times IC50 concentration measured after 24 hrs by AnnexinV-FITC/propidium iodide staining based flow cytometry analysis (reference value: 0.1 %); format: functional
[13] = system: CCRF-CEM; test: Induction of apoptosis in human CCRF-CEM cells assessed as early apoptotic cells at 5 times IC50 concentration measured after 24 hrs by AnnexinV-FITC/propidium iodide staining based flow cytometry analysis (reference value: 2.8 %); format: functional
[14] = system: CCRF-CEM; test: Induction of apoptosis in human CCRF-CEM cells assessed as viable cells at 5 times IC50 concentration measured after 24 hrs by AnnexinV-FITC/propidium iodide staining based flow cytometry analysis (reference value: 97 %); format: functional
[15] = Solubility of compound in 10 % DMSO in water by HPLC-MS analysis; format: physicochemical
[16] = Solubility of compound in 0.5 % DMSO in water by HPLC-MS analysis; format: physicochemical
[17] = Solubility of compound in 5 % DMSO in water by HPLC-MS analysis; format: physicochemical
[18] = Protein binding in human plasma at 10 uM measured after 4 hrs by rapid equilibrium dialysis; format: ADME, cell-free; conditions: read-out: PPB (converted)
[19] = Permeability of compound in PBS buffer assessed as permeability coefficient at pH 7.4 incubated for 18 hrs by PAMPA based RF-MS analysis; format: ADME; conditions: pH 7.4, 18 h
[20] = Microsomal stability in human liver microsomes assessed as parent compound remaining at 2 uM incubated for 60 mins by RF-MS analysis; format: ADME, Microsome; conditions: read-out: Stability
[21] = Microsomal stability in human liver microsomes assessed as parent compound remaining at 2 uM incubated for 30 mins by RF-MS analysis; format: ADME, Microsome; conditions: read-out: Stability
[22] = Microsomal stability in human liver microsomes assessed as parent compound remaining at 2 uM incubated for 15 mins by RF-MS analysis; format: ADME, Microsome; conditions: read-out: Stability
[23] = Stability in human plasma assessed as parent compound remaining at 2 uM incubated for 60 mins by RF-MS analysis; format: ADME, cell-free; conditions: read-out: Stability
[24] = Stability in human plasma assessed as parent compound remaining at 2 uM incubated for 120 mins by RF-MS analysis; format: ADME, cell-free; conditions: read-out: Stability
[25] = Stability in human plasma assessed as parent compound remaining at 2 uM incubated for 30 mins by RF-MS analysis; format: ADME, cell-free; conditions: read-out: Stability
[26] = Stability in human plasma assessed as parent compound remaining at 2 uM incubated for 15 mins by RF-MS analysis; format: ADME, cell-free; conditions: read-out: Stability
[27] = Chemical stability of compound in PBS buffer assessed as parent compound remaining at 2 uM at pH 7.4 and 37 degC incubated for 120 mins by RF-MS analysis; format: physicochemical; conditions: read-out: Stability
[28] = Chemical stability of compound in PBS buffer assessed as parent compound remaining at 2 uM at pH 7.4 and 37 degC incubated for 60 mins by RF-MS analysis; format: physicochemical; conditions: read-out: Stability
[29] = Chemical stability of compound in PBS buffer assessed as parent compound remaining at 2 uM at pH 7.4 and 37 degC incubated for 15 mins by RF-MS analysis; format: physicochemical; conditions: read-out: Stability
[30] = Chemical stability of compound in PBS buffer assessed as parent compound remaining at 2 uM at pH 7.4 and 37 degC incubated for 30 mins by RF-MS analysis; format: physicochemical; conditions: read-out: Stability
[31] = system: MRC5; test: Cytotoxicity against human MRC5 cells incubated for 72 hrs by MTS assay; format: cell-based; conditions: MRC5, 72 h
[32] = system: U2OS; test: Cytotoxicity against human U2OS cells incubated for 72 hrs by MTS assay; format: functional, cell-based
[33] = system: BJ; test: Cytotoxicity against human BJ cells incubated for 72 hrs by MTS assay; format: cell-based
[34] = system: A549; test: Cytotoxicity against human A549 cells incubated for 72 hrs by MTS assay; format: functional, cell-based; conditions: A549, 72 h
[35] = system: K562; test: Cytotoxicity against human K562 cells incubated for 72 hrs by MTS assay; format: functional, cell-based; conditions: K562, 72 h
[36] = Cytotoxicity against human K562-TAX cells incubated for 72 hrs by MTS assay; format: functional, cell-based
[37] = system: HCT-116; test: Cytotoxicity against p53 knockout human HCT116 cells incubated for 72 hrs by MTS assay; format: functional, cell-based; conditions: HCT-116, 72 h
[38] = system: HCT-116; test: Cytotoxicity against human HCT116 cells incubated for 72 hrs by MTS assay; format: functional, cell-based; conditions: HCT-116, 72 h
[39] = system: CCRF-CEM; test: Cytotoxicity against human CCRF-CEM cells incubated for 72 hrs by MTS assay; format: functional, cell-based
[40] = Cytotoxicity against human CEM-DNR-bulk cells incubated for 72 hrs by MTS assay; format: functional, cell-based
[41] = system: CCRF-CEM; test: Cell cycle arrest in human CCRF-CEM cells assessed as decrease in proportion of cells in G1 phase at 5 times IC50 measured after 24 hrs by propidium iodide/RNase staining based flow cytometry analysis; format: functional

## C=C(C)[C@@H]1CC[C@]2(C(=O)O)CC[C@]3(C)[C@H](CC[C@@H]4[C@@]5(C)Cc6sc(N)nc6C(C)(C)[C@@H]5CC[C@]43C)[C@@H]12
[1]
  Activity: Active
[2]
  Activity: Active
[3]
  Activity: 62.2%
[4]
  Activity: Active
[5]
  Activity: Active
[6]
  Activity: Active
[7]
  Activity: Active
[8]
  Activity: Active
[9]
  Activity: Active
[10]
  Activity: Active
[11]
  Activity: 0.8%
[12]
  Activity: 2.1%
[13]
  Activity: 20.2%
[14]
  Activity: 76.9%
[15]
  solubility: 89 µM (≈ 45.5 µg/mL)
[16]
  solubility: 26 µM (≈ 13.3 µg/mL)
[17]
  solubility: 45 µM (≈ 23 µg/mL)
[18]
  fraction unbound at 4 h, 10 µM: 0.042
[19]
  log(permeability): -5.34
[20]
  remaining at 1 h, 2 µM: 25.8%
[21]
  remaining at 0.5 h, 2 µM: 26%
[22]
  remaining at 0.25 h, 2 µM: 31%
[23]
  remaining at 1 h, 2 µM: 97.7%
[24]
  remaining at 2 h, 2 µM: 97.7%
[25]
  remaining at 0.5 h, 2 µM: 99.2%
[26]
  remaining at 0.25 h, 2 µM: 99.5%
[27]
  remaining at 2 h, 2 µM: 86.9%
[28]
  remaining at 1 h, 2 µM: 90.8%
[29]
  remaining at 0.25 h, 2 µM: 99.5%
[30]
  remaining at 0.5 h, 2 µM: 91.3%
[31]
  IC50: > 50 µM
[32]
  IC50: 48 µM
[33]
  IC50: > 50 µM
[34]
  IC50: 38.4 µM
[35]
  IC50: > 50 µM
[36]
  IC50: 17.4 µM
[37]
  IC50: 48.3 µM
[38]
  IC50: 36.5 µM
[39]
  IC50: 2400 nM
[40]
  IC50: 25.6 µM

## C[C@H]1[C@H](C)CC[C@]2(C(=O)O)CC[C@]3(C)C(=CC[C@@H]4[C@@]5(C)CC(Br)C(=O)C(C)(C)[C@@H]5CC[C@]43C)[C@H]12 (stereo partly specified)
[41]
  Activity: Active
[1]
  Activity: Active
[2]
  Activity: Active
[3]
  Activity: 36.3%
[4]
  Activity: Active
[5]
  Activity: Active
[6]
  Activity: Active
[7]
  Activity: Active
[8]
  Activity: Active
[9]
  Activity: Active
[10]
  Activity: Active
[11]
  Activity: 0.4%
[12]
  Activity: 2.4%
[13]
  Activity: 16.5%
[14]
  Activity: 80.7%
[15]
  solubility: 83 µM (≈ 44.3 µg/mL)
[16]
  solubility: 24 µM (≈ 12.8 µg/mL)
[17]
  solubility: 30 µM (≈ 16 µg/mL)
[18]
  fraction unbound at 4 h, 10 µM: 0.176
[19]
  log(permeability): -4.93
[20]
  remaining at 1 h, 2 µM: 66.2%
[21]
  remaining at 0.5 h, 2 µM: 80.7%
[22]
  remaining at 0.25 h, 2 µM: 93.4%
[23]
  remaining at 1 h, 2 µM: 94.9%
[24]
  remaining at 2 h, 2 µM: 85.5%
[25]
  remaining at 0.5 h, 2 µM: 98.2%
[26]
  remaining at 0.25 h, 2 µM: 98.5%
[27]
  remaining at 2 h, 2 µM: 88.5%
[28]
  remaining at 1 h, 2 µM: 99.1%
[29]
  remaining at 0.25 h, 2 µM: 99.6%
[30]
  remaining at 0.5 h, 2 µM: 99.2%
[31]
  IC50: 29.3 µM
[32]
  IC50: 20.7 µM
[33]
  IC50: 49.5 µM
[34]
  IC50: 27.6 µM
[35]
  IC50: 38.8 µM
[36]
  IC50: 25.1 µM
[37]
  IC50: 29.8 µM
[38]
  IC50: 28.4 µM
[39]
  IC50: 3600 nM
[40]
  IC50: 21.8 µM
